The source of these data is PubChem BioAssay AID1963846 (Molecular Pharmacology Branch, DTP, NCI, 2024).

For this test, the system named is 454973-116-R2-J3-PDC complex spheroid viability. The test can be described thus: Anticancer human tumor 454973-116-R2-J3-PDC patient-derived pancreatic carcinoma cell line growth inhibition [POLQ]. As to conditions: for viability, T/C: stronger effect = lower value. Here is the method: Multicellular complex tumor spheroid response to Polymerase (POL) inhibitors (novobiocin, ART-558, RP6685) in combination with a variety of drugs and investigational agents in selected tumor cell lines
The POL inhibitors (novobiocin, ART-558, and RP6685) were evaluated both individually and in combination with standard of care and investigational anticancer small molecules within a complex spheroid model of solid tumors. . Complex spheroids include a stromal component modeled by human endothelial cells (HUVEC) and fibroblasts modeled by human mesenchymal stem cells (MSCs). The concentration ranges selected for each drug and investigational agent were based upon clinically achievable concentrations if the clinical Cmax of the agent was known.
Compounds. The drugs and investigational agents: novobiocin (NSC847541), ART-558 (NSC835418), RP-6685 (NSC848927), peposertib (NSC802822), ceralasertib (NSC780249), elimusertib (NSC800525), camonsertib (NSC841442), AZD-1390 (NSC803789), olaparib (NSC753686), talazoparib (NSC767125), rucaparib (NSC756644), sotorasib (NSC818433), MRTX-1133 (NSC836407), SN-38 (NSC673596), topotecan (NSC609699), epotoside (NSC141540), doxorubicin (NSC123127), gemcitabine (NSC613327), 5-fluorouracil (NSC19893), paclitaxel (NSC125973), vemurafenib (NSC761431), MSA-2 (NSC828583), SN-011 (NSC837082), adavosertib (NSC754352), prexasertib (NSC758257), carboplatin (NSC241240) and oxaliplatin (NSC266046), were obtained from the National Cancer Institute (NCI) Developmental Therapeutics Program Chemical Repository (21). The FDA-approved anticancer drug set is available from the Developmental Therapeutics Program at https://dtp.cancer.gov/organization/dscb/obtaining/. […] The stock solutions were prepared in dimethyl sulfoxide (DMSO, Sigma-Aldrich, St. Louis, MO, cat. D2650), except for the platinum compounds which were prepared in saline (Quality Biological, Gaithersburg, MD, cat. 114-055-101), at 800-fold the tested concentration and stored at -70 degrees C prior to their use. All drugs and investigational agents were tested over a range starting from a high concentration at or near the clinical Cmax and decreasing in half-log increments. If the clinical Cmax for an agent had not been determined, the highest concentration tested was 10 microM, except for SN-38, which was tested at a high concentration of 1 microM.
Cell Culture. All cells were maintained in an incubator at 37 degrees C and 5% CO2 with 95% humidity. The PDC lines were cultured according to standard operating procedures established by the NCI PDMR (https://pdmr.cancer.gov). Table 3 of the manuscript, lists the cell lines along with the number of the three cell types plated to form the mct-spheroids and media for tumor cell growth. After thawing, all PDC lines, except 997537-175-T-J1-PDC and 415267-285-R-J2-PDC, were cultured in Matrigel-coated flasks prepared with a working solution of 1X Ham's F-12 nutrient mix, without supplementation (Thermo Fisher Scientific, cat. 11765054), 100 U/mL penicillin-streptomycin (Thermo Fisher Scientific, cat. 15140122), and 2.5% Matrigel (Corning Inc., Corning, NY, cat. 354248) for the first three passages. The two PDC lines 997537-175-T-J1-PDC and 415267-285-R-J2-PDC were cultured on uncoated flasks. The 857933-349-R-J2-PDC line was cultured in 6C/Colon 1B media containing advanced DMEM/F-12 (Thermo Fisher Scientific, cat. 12634028), 10 mM HEPES (Thermo Fisher Scientific, cat. 15630080), 1X GlutaMAX supplement (Thermo Fisher Scientific, cat. 35050061), 0.1 mg/mL primocin (InvivoGen, San Diego, CA, cat. ant-pm-2), 10% defined fetal bovine serum, heat inactivated (HyClone Laboratories Inc., Logan, UT, cat. SH30070.03HI), 50% L-WRN conditioned media (ATCC, cat. CRL-3276), 1.25 mM N-Acetyl-L-cysteine (Sigma-Aldrich, cat. A9165), 10 mM nicotinamide (Sigma-Aldrich, cat. N0636), 1X B-27 supplement (Thermo Fisher Scientific, cat. 17504044), 1X N-2 supplement (Thermo Fisher Scientific, cat. […]

Where [1] appears, read: compound alone, run of 11/06/2023.

Values joined by “and” are separate entries in the source; they are usually repeats but may differ in a detail not shown here. Identical values can stand only once.
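Further: spheroids exposed to drugs for seven days before measurement.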
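Wherever viability, T/C is given: percent viability relative to DMSO vehicle control wells taken as 100%.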

A word on the viability, T/C: it is the result in the treated group divided by that in the control group, in per cent. By IC50 is commonly meant the midpoint of a concentration-inhibition curve. Turning to `COc1ccc([C@@H](O)c2cc(-c3ncnc4cc(N5CCOCC5)ccc34)c(F)cc2Cl)nn1`, the viability, T/C (compound 0.0316 µM) was 110% and 102% and 101%; the viability, T/C (compound 0.1 µM) is 102% and 96.8% and 98.7%; the viability, T/C (compound 0.316 µM) is 104% and 102% and 94.2%; the viability, T/C (compound 1 µM) was 92.9% and 83.8% and 93%; the viability, T/C (compound 3.16 µM) is 76% and 75.2% and 80.2%; the viability, T/C (compound 10 µM) was 52.7% and 56.2% and 53.7%. Where the note is “curve of compound”, the IC50 was > 10 µM.
Consider `COc1cccc(OCCCN)c1-c1cc(Nc2cnc(C#N)cn2)n[nH]1`, for which the viability, T/C is, setting by setting: (compound 0.00316 µM) 99.7% (2×) and 101%; (compound 0.01 µM) 70.4% and 75.3% and 73%; (compound 0.0316 µM) 7.56% and 10.8% and 14.6%; (compound 0.1 µM) 5.87% and 6.45% and 6.4%; (compound 0.316 µM) 4.59% and 5.13% and 4.47%; (compound 1 µM) 4.4% and 5.18% and 4.15%. Under “curve of compound”, the IC50 was 0.0145 µM and 0.0157 µM and 0.0158 µM.
Take `COc1cccc2c1C(=O)c1c(O)c3c(c(O)c1C2=O)CC(O)(C(=O)CO)CC3OC1CC(N)C(O)C(C)O1` (centres undefined): the viability, T/C runs as follows: (compound 0.0316 µM) 73.1% and 56.1% and 76.5%; (compound 0.1 µM) 29.5% and 17.3% and 24.4%; (compound 0.316 µM) 22.2% and 15.9% and 20.4%; (compound 1 µM) 9.63% and 3.16% and 7.36%; (compound 3.16 µM) 0.59% and 0.89% and 0.65%; (compound 10 µM) 0.49% and 0.17% and 1.33%. Moreover, for the setting “curve of compound”, the IC50 was 0.0626 µM and 0.0375 µM and 0.0601 µM.
With `Cc1cccc(N(C)C(=O)C2C(O)CCN2c2nc(C)cc(C(F)(F)F)c2C#N)c1` (centres undefined), the viability, T/C (compound 0.0316 µM) is 106% [middle of 13 runs]; the viability, T/C (compound 0.1 µM) is 108% [middle of 13 runs]; the viability, T/C (compound 0.316 µM) is 107% [middle of 13 runs]; the viability, T/C (compound 1 µM) was 100% [middle of 13 runs]; the viability, T/C (compound 3.16 µM) was 104% [middle of 13 runs]; the viability, T/C (compound 10 µM) is 107% [middle of 13 runs]. The IC50 runs as follows: (compound alone, run of 10/31/2023) > 10 µM; under setting [1], > 10 µM.
Regarding `Cn1ncnc1[C@H]1c2n[nH]c(=O)c3cc(F)cc(c23)N[C@@H]1c1ccc(F)cc1`, the viability, T/C (compound 0.000316 µM) is 112% and 102% (2×); the viability, T/C (compound 0.001 µM) is 91.7% and 103% and 104%; the viability, T/C (compound 0.00316 µM) is 92.2% and 107% and 93.9%; the viability, T/C (compound 0.01 µM) was 95.1% and 86.6% and 101%; the viability, T/C (compound 0.0316 µM) is 111% and 86.4% and 102%; the viability, T/C (compound 0.1 µM) is 89.9% and 81.5% and 91.9%. The IC50 (curve of compound) was > 0.1 µM.
For the compound `Nc1ccc(C#CCN(C(=O)Cc2ncc(C(F)(F)F)cc2C(F)(F)F)c2ccc(F)cc2)nn1`, the viability, T/C is, setting by setting: (compound 0.0316 µM) 109% [middle of 13 runs]; (compound 0.1 µM) 106% [middle of 13 runs]; (compound 0.316 µM) 107% [middle of 13 runs]; (compound 1 µM) 104% [middle of 13 runs]; (compound 3.16 µM) 105% [middle of 13 runs]; (compound 10 µM) 112% [middle of 13 runs]. Under setting [1], the IC50 is > 10 µM.
For the compound `Nc1ccn(C2OC(CO)C(O)C2(F)F)c(=O)n1` (centres undefined), the viability, T/C by setting is: (compound 0.0316 µM) 12.9% and 5.69% and 16.6%; (compound 0.1 µM) 14.2% and 8.25% and 9.25%; (compound 0.316 µM) 11.2% and 8.63% and 12.6%; (compound 1 µM) 14.3% and 7.78% and 11.7%; (compound 3.16 µM) 12% and 9.22% and 12.5%; (compound 10 µM) 11.3% and 5.91% and 10.8%. Also, the IC50 (curve of compound) is < 0.0316 µM.
Regarding `O=C(c1cc(Cc2n[nH]c(=O)c3ccccc23)ccc1F)N1CCN(C(=O)C2CC2)CC1`, the viability, T/C reads like this: (compound 0.0316 µM) 105% and 99.8% and 97.1%; (compound 0.1 µM) 96.5% and 99% and 104%; (compound 0.316 µM) 101%; (compound 1 µM) 91.2% and 104% and 90.5%; (compound 3.16 µM) 104% and 102% and 95.3%; (compound 10 µM) 60.6% and 62.5% and 54.9%. Moreover, the IC50 (curve of compound) is > 10 µM.
Regarding `O=c1[nH]cc(F)c(=O)[nH]1`, the viability, T/C by setting is: (compound 0.0316 µM) 107% and 104% and 112%; (compound 0.1 µM) 103% and 102% and 99.7%; (compound 0.316 µM) 101% and 92.2% and 104%; (compound 1 µM) 99.9% and 71.4% and 92.9%; (compound 3.16 µM) 50.8% and 29.6% and 53.3%; (compound 10 µM) 32.6% and 40.2% and 36.8%. Moreover, where the note is “curve of compound”, the IC50 was 3.34 µM and 1.96 µM and 4.01 µM.
